Earlier results, collected in Sander's compilation of Henry's law constants (doi:10.1080/10643389609388492).

Assay: Henry solubility constant Hcp at 298.15 K (mol/(m3 Pa))
Settings: reference: Staudinger and Roberts (1996); cited value

Row | SMILES | Henry solubility constant Hcp
1 | CC(Cl)(Cl)Cl [1,1,1-trichloroethane] | 0.00058
2 | ClC(Cl)C(Cl)Cl [1,1,2,2-tetrachloroethane] | 0.024
3 | ClCC(Cl)Cl [1,1,2-trichloroethane] | 0.011
4 | C=C(Cl)Cl [1,1-dichloroethene] | 0.00034
5 | ClCC(Cl)CCl [1,2,3-trichloropropane] | 0.034
6 | CC(Cl)CCl (stereo not given) [1,2-dichloropropane] | 0.0034
7 | Cc1ccccc1C [1,2-dimethylbenzene] | 0.0019
8 | Cc1cccc(C)c1 [1,3-dimethylbenzene] | 0.0013
9 | Cc1ccc(C)cc1 [1,4-dimethylbenzene] | 0.0013
10 | O=Cc1ccccc1 [benzaldehyde] | 0.39
11 | c1ccccc1 [benzene] | 0.0016
12 | ClC(Cl)Br [bromodichloromethane] | 0.004
13 | Clc1ccccc1 [chlorobenzene] | 0.0027
14 | CCCl [chloroethane] | 0.00083
15 | C=CCl [chloroethene] | 0.00039
16 | ClC(Br)Br [dibromochloromethane] | 0.0085
17 | ClCCl [dichloromethane] | 0.0036
18 | CCc1ccccc1 [ethylbenzene] | 0.0012
19 | ClC(Cl)(Cl)C(Cl)(Cl)Cl [hexachloroethane] | 0.0025
20 | Cc1ccccc1 [methylbenzene] | 0.0015
21 | CC(C)=O [propanone] | 0.3
22 | ClC(Cl)=C(Cl)Cl [tetrachloroethene] | 0.00058
23 | ClC(Cl)(Cl)Cl [tetrachloromethane] | 0.00034
24 | BrC(Br)Br [tribromomethane] | 0.017
25 | ClC=C(Cl)Cl [trichloroethene] | 0.00099
